Starred links: 1 amine or outer side, 2 acyl side, 3 side chain; linkers in the order of their positions; H or OH if unused. Positions of bridges follow the written chain, without caps; N, C: chain ends. Non-standard residues stand in square brackets, D forms with d. Residues, ends and D or L forms follow the SMILES beside them. *: point of attachment. Ala(1H-tetrazol-5-yl) = N[C@@H](Cc1nnn[nH]1)C(=O)O; Arg(Me2s) = CN=C(NC)NCCC[C@H](N)C(=O)O; X2 = O=C(C[C@H](N[*:1])C(F)(F)F)[*:2]; Lys(Me2) = CN(C)CCCC[C@H](N)C(=O)O; NMeF = CN[C@@H](Cc1ccccc1)C(=O)O; NMeI = CC[C@H](C)[C@H](NC)C(=O)O; NMeβAla = CN(CCC(=O)[*:2])[*:1]; NMeL = CN[C@@H](CC(C)C)C(=O)O; NMeV = CN[C@H](C(=O)O)C(C)C; NMeS = CN[C@@H](CO)C(=O)O; NMeA = CN[C@@H](C)C(=O)O; Piperidide = C1CCN(*)CC1; β3hA = C[C@H](N)CC(=O)O; Sar = CNCC(=O)O; tBu = CC(C)(C)*

The first series in a line: PAMPA (parallel artificial membrane permeability assay). The format is in vitro ADME. As to conditions: PAMPA. As to the method: 4 μL of a phospholipid-organic solvent solution composed of 10% (w/v) of egg lecithin, 0.5% (w/v) of cholesterol and dodecane (all purchased from Fluka) was added to a Millipore 96-well membrane filter (hydrophobic PVDF (polyvinylidene difluoride), pore size 0.45 microm) (purchased from Millipore Japan) to make an artificial phospholipid membrane.
A DMSO solution containing the compound at a concentration of 10 mM was added in a percentage of 0.5% (v/v) to a 50 mM MOPSO buffer, pH 6.5, containing 5.0% (w/v) of glycocholic acid, and 330 μL of the mixture was added to a 96-well plate made of Teflon (donor plate). The above artificial phospholipid membrane plate was attached onto the donor plate, and 280 μL of a solution obtained by adding DMSO in a percentage of 0.5% (v/v) to a 50 mM MOPSO buffer, pH 6.5, containing 5.0% (w/w) of glycocholic acid was added onto the artificial phospholipid membrane (acceptor plate). These plates were allowed to stand at 37° C. for 18 hours, after which the concentrations of the compound in the solutions in the donor plate and the acceptor plate were measured by LC/MS or LC/UV, and the membrane permeation rate of the compound (Pe) was calculated by the following formulas (1) and (2), where t is the testing time, A is the membrane filter area, VD is the amount of the donor solution, VA is the amount of the acceptor solution, CD,t is the concentration of the compound in the donor solution at the time t, and CA,t is the concentration of the compound in the acceptor solution at the time t.
`NS(=O)(=O)c1cc2c(cc1Cl)NCNS2(=O)=O` [hydrochlorothiazide, reference compound] had a Papp at 18 h, 50 µM of 0.6 ×10⁻⁶ cm/s.

In the case of `COCCc1ccc(OCC(O)CNC(C)C)cc1` (stereo not drawn) [metoprolol, reference compound], the Papp at 18 h, 50 µM amounted to 29 ×10⁻⁶ cm/s.

Still in this series, the particulars now being: PAMPA, pH 6.5.
The compound `CC(C)C[C@H]1C(=O)N(C)[C@@H](Cc2ccccc2)C(=O)NCC(=O)N(C)[C@@H](Cc2ccccc2)C(=O)N(C)[C@@H](C)C(=O)N[C@@H]([C@@H](C)O)C(=O)N[C@H](C(=O)N(C)[C@@H](Cc2ccccc2)C(=O)N(C)[C@@H](Cc2ccccc2)C(=O)N[C@@H](C)C(=O)N2CCCCC2)CC(=O)N(C)CCC(=O)N[C@@H](C(C)C)C(=O)N1C` [DP-312] ([NMeβAla]V[NMeL][NMeF]G[NMeF][NMeA]TD[NMeF][NMeF]A-Piperidide; lactam N-9) gave a Papp at 18 hours, 50 µM of 47 ×10⁻⁶ cm/s.

In the case of `CC[C@H](C)[C@H]1C(=O)N[C@H](C(=O)N2CCCCC2)CC(=O)N[C@H](C)C(=O)N[C@@H]([C@@H](C)O)C(=O)N(C)[C@@H](C)C(=O)N(C)[C@@H](C(C)C)C(=O)N[C@@H](Cc2ccccc2)C(=O)N(C)CC(=O)N(C)[C@@H](CC(C)C)C(=O)N[C@@H](C)C(=O)N1C` [DP-71] ([dA]T[NMeA][NMeV]F[Sar][NMeL]A[NMeI]D-Piperidide; lactam N-10), the Papp at 18 hours, 50 µM stood at 5.4 ×10⁻⁶ cm/s.

In turn, `CC[C@H](C)[C@@H]1NC(=O)[C@H](Cc2ccccc2)N(C)C(=O)[C@H]([C@@H](C)O)NC(=O)[C@@H](C)NC(=O)C[C@@H](C(=O)N(C)[C@@H](Cc2ccccc2)C(=O)N(C)[C@@H](Cc2ccccc2)C(=O)N[C@@H](C)C(=O)N2CCCCC2)NC(=O)[C@H](CC(C)C)N(C)C(=O)[C@H](CC(C)C)N(C)C(=O)[C@H](Cc2ccccc2)N(C)C(=O)[C@H](CC(C)C)N(C)C(=O)[C@H](C)N(C)C1=O` [DP-289] ([dA]T[NMeF]I[NMeA][NMeL][NMeF][NMeL][NMeL]D[NMeF][NMeF]A-Piperidide; lactam N-10) yielded a Papp at 18 hours, 50 µM of 0.14 ×10⁻⁶ cm/s.

As to `CC[C@H](C)[C@H]1C(=O)N[C@H](C(=O)N2CCCCC2)CC(=O)N(C)CC(=O)N(C)[C@@H](CC(C)C)C(=O)N[C@@H](C)C(=O)N(C)[C@@H](CC(C)C)C(=O)N(C)[C@@H](Cc2ccccc2)C(=O)N(C)[C@@H](CC(C)C)C(=O)N(C)[C@@H](Cc2ccccc2)C(=O)N[C@@H]([C@@H](C)O)C(=O)N(C)[C@@H](C)C(=O)N1C` [DP-70] ([Sar][NMeL]A[NMeL][NMeF][NMeL][NMeF]T[NMeA][NMeI]D-Piperidide; lactam N-11), the Papp at 18 hours, 50 µM was found to be 40 ×10⁻⁶ cm/s.

Compound `CC(C)C[C@@H]1NC(=O)[C@H](CCCCN(C)C)NC(=O)[C@@H]2CCCN2C(=O)[C@H](C)NC(=O)[C@H](CC(C)C)N(C)C(=O)[C@H](Cc2ccccc2)NC(=O)[C@H](CC(C)C)N(C)C(=O)[C@H](CC(C)C)N(C)C(=O)[C@H](Cc2ccccc2)NC(=O)CN(C)C(=O)C[C@@H](C(=O)N(C)[C@@H](Cc2ccccc2)C(=O)N[C@@H](C)C(=O)N2CCCCC2)NC1=O` [DP-593] ([Sar]F[NMeL][NMeL]F[NMeL]AP[Lys(Me2)]LD[NMeF]A-Piperidide; lactam N-11) showed a Papp at 18 hours, 50 µM of 1.1 ×10⁻⁶ cm/s.

For the compound `CC[C@H](C)[C@@H]1NC(=O)[C@H](CC(C)C)N(C)C(=O)[C@H](Cc2ccccc2)N(C)C(=O)[C@H]([C@@H](C)O)NC(=O)[C@H](CC(C)C)N(C)C(=O)[C@H](CC(C)C)N(C)C(=O)[C@H](C)N(C)C(=O)C[C@@H](C(=O)N2CCCCC2)NC(=O)[C@H](CC(C)C)NC(=O)[C@H](Cc2ccccc2)N(C)C(=O)[C@H](C)N(C)C1=O` [DP-154] ([NMeA][NMeL][NMeL]T[NMeF][NMeL]I[NMeA][NMeF]LD-Piperidide; lactam N-11), the Papp at 18 hours, 50 µM is 9.3 ×10⁻⁶ cm/s.

The same series, now with this note: PAMPA; membrane permeation rate (Pe); 50 mM MOPSO buffer pH 6.5 with 5.0% glycocholic acid, 37° C., 18 hours; read-out: iPAMPA Pe.
As to `CC(C)[C@@H]1NC(=O)[C@H](Cc2ccccc2)N(C)C(=O)[C@H](C)N(C)C(=O)[C@H]([C@@H](C)O)NC(=O)CNC(=O)[C@H](C)N(C)C(=O)[C@H](Cc2ccccc2)NC(=O)[C@H](C)N(C)C(=O)C[C@@H](C(=O)N(C)[C@@H](Cc2ccccc2)C(=O)N(C)[C@@H](Cc2ccccc2)C(=O)N[C@@H](C)C(=O)N2CCCCC2)NC(=O)[C@H](C(C)C)N(C)C1=O` [DP-393] ([NMeA]F[NMeA]GT[NMeA][NMeF]V[NMeV]D[NMeF][NMeF]A-Piperidide; lactam N-10), the Papp at 18 hours, 50 µM turned out to be 18 ×10⁻⁶ cm/s.

Consider `CC(C)C[C@H]1C(=O)N(C)[C@@H](C)C(=O)N[C@@H](COC(C)(C)C)C(=O)N(C)[C@@H](C(C)C)C(=O)N[C@H](C(=O)N2CCCCC2)CC(=O)N(C)[C@@H](C)C(=O)N(C)[C@@H](Cc2ccccc2)C(=O)N[C@@H](C)C(=O)N(C)[C@@H](C)C(=O)N[C@@H](Cc2ccccc2)C(=O)N[C@@H]([C@@H](C)O)C(=O)N(C)[C@@H](C)C(=O)N1C` [DP-317] ([NMeA][NMeF]A[NMeA]FT[NMeA][NMeL][NMeA]S(tBu)[NMeV]D-Piperidide; lactam N-12), for which the Papp at 18 hours, 50 µM turned out to be 20 ×10⁻⁶ cm/s.

In the case of `CC(C)C[C@@H]1NC(=O)[C@H](Cc2ccccc2)N(C)C(=O)[C@H](Cc2ccccc2)N(C)C(=O)[C@H](C(C)C)NC(=O)[C@H](CC(C)C)N(C)C(=O)[C@H](Cc2nn[nH]n2)NC(=O)[C@H](CC(C)C)N(C)C(=O)C[C@@H](C(=O)N2CCCCC2)NC(=O)[C@H](CC(C)C)N(C)C1=O` [DP-907] ([NMeL][Ala(1H-tetrazol-5-yl)][NMeL]V[NMeF][NMeF]L[NMeL]D-Piperidide; lactam N-9), the Papp at 18 hours, 50 µM worked out at 21 ×10⁻⁶ cm/s.

Regarding `CC(C)C[C@@H]1NC(=O)[C@H](CC(C)C)N(C)C(=O)[C@H](C(C)C)NC(=O)C[C@H](C)NC(=O)CN(C)C(=O)[C@H](CC(C)C)NC(=O)[C@H](CO)N(C)C(=O)[C@H](CC(C)C)N(C)C(=O)[C@H](CC(C)C)N(C)C(=O)[C@H](CC(C)C)N(C)C(=O)[C@@H](CC(C)C)NC1=O` [DP-640] (cyclo(L[Sar][β3hA]V[NMeL]L[dL][NMeL][NMeL][NMeL][NMeS])), the Papp at 18 hours, 50 µM stood at 50 ×10⁻⁶ cm/s.

As for `CC(C)C[C@H]1C(=O)N(C)[C@@H](Cc2ccccc2)C(=O)N(C)[C@@H](CC(C)C)C(=O)N[C@H](C(=O)N(C)[C@@H](Cc2ccccc2)C(=O)N[C@@H](Cc2ccccc2)C(=O)N2CCCCC2)CC(=O)N[C@H](C(C)C)C(=O)N[C@@H](C)C(=O)N[C@@H]([C@@H](C)O)C(=O)N(C)[C@@H](C)C(=O)N[C@@H](Cc2ccccc2)C(=O)N1C` [DP-577] ([dV]AT[NMeA]F[NMeL][NMeF][NMeL]D[NMeF]F-Piperidide; lactam N-9), the Papp at 18 hours, 50 µM turned out to be 0.94 ×10⁻⁶ cm/s.

For `CC[C@H](C)[C@@H]1NC(=O)[C@H](CC(C)C)N(C)C(=O)CN(C)C(=O)[C@H]([C@@H](C)O)NC(=O)[C@H](C)N(C)C(=O)C[C@@H](C(=O)N(C)[C@@H](CC(C)C)C(=O)N[C@@H](C)C(=O)N2CCCCC2)NC(=O)[C@H](CC(C)C)N(C)C(=O)[C@H](Cc2ccccc2)N(C)C(=O)[C@H](CC(C)C)N(C)C1=O` [DP-663] ([NMeA]T[Sar][NMeL]I[NMeL][NMeF][NMeL]D[NMeL]A-Piperidide; lactam N-9), the Papp at 18 hours, 50 µM amounted to 43 ×10⁻⁶ cm/s.

For the compound `CC(C)C[C@@H]1NC(=O)CN(C)C(=O)[C@H](CCCCN(C)C)NC(=O)[C@H](CC(C)C)N(C)C(=O)[C@H](Cc2ccccc2)N(C)C(=O)[C@H](C)N(C)C(=O)[C@@H](C(C)C)NC(=O)C[C@@H](C(=O)N(C)[C@@H](Cc2ccccc2)C(=O)N[C@@H](C)C(=O)N2CCCCC2)NC(=O)[C@H](CC(C)C)N(C)C(=O)[C@H](CC(C)C)N(C)C1=O` [DP-587] ([dV][NMeA][NMeF][NMeL][Lys(Me2)][Sar]L[NMeL][NMeL]D[NMeF]A-Piperidide; lactam N-10), the Papp at 18 hours, 50 µM stood at 3.3 ×10⁻⁶ cm/s.

In the case of `CC(C)C[C@H]1C(=O)N(C)[C@@H](Cc2ccccc2)C(=O)N[C@@H]([C@@H](C)O)C(=O)N[C@@H](C)C(=O)N(C)[C@@H](C)C(=O)N[C@H](C(=O)N(C)[C@@H](Cc2ccccc2)C(=O)N[C@@H](C)C(=O)N2CCCCC2)CC(=O)N(C)CCC(=O)N(C)[C@@H](Cc2ccccc2)C(=O)N(C)[C@@H](C(C)C)C(=O)N(C)[C@@H](C)C(=O)N[C@@H](C)C(=O)N1C` [DP-360] ([NMeβAla][NMeF][NMeV][NMeA]A[NMeL][NMeF]TA[NMeA]D[NMeF]A-Piperidide; lactam N-11), the Papp at 18 hours, 50 µM turned out to be 7.3 ×10⁻⁶ cm/s.

For the compound `CC(C)C[C@H]1C(=O)N[C@@H](C(C)C)C(=O)N(C)[C@@H](CC(C)C)C(=O)N[C@@H](C)C(=O)N[C@H](C)C(=O)N(C)[C@@H](CC(C)C)C(=O)N(C)[C@@H](CC(C)C)C(=O)N(C)[C@@H](CC(C)C)C(=O)N(C)[C@@H](CO)C(=O)N[C@H](C(F)(F)F)CC(=O)N(C)CC(=O)N1C` [DP-654] (cyclo(A[dA][NMeL][NMeL][NMeL][NMeS][X2][Sar][NMeL]V[NMeL])), the Papp at 18 hours, 50 µM was 23 ×10⁻⁶ cm/s.

For the compound `C/N=C(\NC)NCCC[C@@H]1NC(=O)[C@H](CC(C)C)N(C)C(=O)[C@H](Cc2ccccc2)N(C)C(=O)[C@H](C)N(C)C(=O)[C@@H](C(C)C)NC(=O)C[C@@H](C(=O)N(C)[C@@H](Cc2ccccc2)C(=O)N[C@@H](C)C(=O)N2CCCCC2)NC(=O)[C@H](CC(C)C)N(C)C(=O)[C@H](CC(C)C)N(C)C(=O)[C@H](C(C)C)NC(=O)CN(C)C1=O` [DP-590] ([dV][NMeA][NMeF][NMeL][Arg(Me2s)][Sar]V[NMeL][NMeL]D[NMeF]A-Piperidide; lactam N-10), the Papp at 18 hours, 50 µM is 1.4 ×10⁻⁶ cm/s.
